Experiments:
Assay in all cases: Test B pre-/postemergence plant response
Format in all cases: in vivo
wild oat (Avena fatua) = details: for Plant response rating, Oat, Wild: Postemergence
Outline: (§1)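 Seeds were sown in loam soil/sand blend and treated preemergence with compound in non-phytotoxic solvent mixture containing surfactant; postemergence sprays, same formulation, went onto plants 2 to 18 cm (1- to 4-leaf stage) in peat-based planting medium. Greenhouse 13 to 15 days, then visual rating versus untreated controls, 0 (no effect) to 100 (complete control).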

[1] = system: bermudagrass (Cynodon dactylon); details: for Plant response rating, Bermudagrass: Postemergence
Outline: as §1

[2] = system: Italian ryegrass (Lolium multiflorum); details: for Plant response rating, Ryegrass, Italian: Postemergence
Outline: as §1

[3] = system: morningglory (Ipomoea coccinea); details: for Plant response rating, Morningglory: Postemergence
Outline: as §1

[4] = system: Surinam grass (Brachiaria decumbens); details: for Plant response rating, Surinam Grass: Postemergence
Outline: as §1

[5] = system: downy bromegrass (Bromus tectorum); details: for Plant response rating, Bromegrass, Downy: Postemergence
Outline: as §1

[6] = system: ragweed (common ragweed, Ambrosia elatior); details: for Plant response rating, Ragweed: Postemergence
Outline: as §1

[7] = system: cocklebur (Xanthium strumarium); details: for Plant response rating, Cocklebur: Postemergence
Outline: as §1

[8] = system: wheat (Triticum aestivum); details: for Plant response rating, Wheat: Postemergence
Outline: as §1

[9] = system: woolly cupgrass (Eriochloa villosa); details: for Plant response rating, Cupgrass, Woolly: Postemergence
Outline: as §1

kochia (Kochia scoparia) = details: for Plant response rating, Kochia: Postemergence
Outline: as §1

[10] = system: blackgrass (Alopecurus myosuroides); details: for Plant response rating, Blackgrass: Postemergence
Outline: as §1

[11] = system: large crabgrass (Digitaria sanguinalis); details: for Plant response rating, Crabgrass, Large: Postemergence
Outline: as §1

[12] = 62 g ai/ha, postemergence, 0 is no effect, 100 is complete control, 13 to 15 days
[13] = 31 g ai/ha, 0 to 100 scale (0 no effect, 100 complete control)
[14] = 125 g ai/ha, scale 0 to 100 (0 no effect, 100 complete control)
[15] = 250 g ai/ha, scale 0 to 100 (0 no effect, 100 complete control), 13 to 15 days

CCCn1c(-c2cccc(C(F)(F)F)c2)ncc(C(=O)C2=C(O)CCCC2=O)c1=O [Compound 155]
Oat, Wild plant response rating (0 to 100 scale) (wild oat (Avena fatua); [12]): 40 | Plant response rating, Oat, Wild (wild oat (Avena fatua); [13]): 10 | Plant response rating, Oat, Wild (wild oat (Avena fatua); [14]): 60 | Plant response rating, Oat, Wild (wild oat (Avena fatua); [15]): 70 | Bermudagrass plant response rating (0 to 100 scale) [1, 12]: 98 | Plant response rating, Bermudagrass [1, 13]: 85 | Plant response rating, Bermudagrass [1, 14]: 98 | Plant response rating, Bermudagrass [1, 15]: 100 | Ryegrass, Italian plant response rating (0 to 100 scale) [2, 12]: 30 | Plant response rating, Ryegrass, Italian [2, 13]: 5 | Plant response rating, Ryegrass, Italian [2, 14]: 40 | Plant response rating, Ryegrass, Italian [2, 15]: 60 | Morningglory plant response rating (0 to 100 scale) [3, 12]: 85 | Plant response rating, Morningglory [3, 13]: 55 | Plant response rating, Morningglory [3, 14]: 100 | Plant response rating, Morningglory [3, 15]: 100 | Surinam Grass plant response rating (0 to 100 scale) [4, 12]: 55 | Plant response rating, Surinam Grass [4, 13]: 40 | Plant response rating, Surinam Grass [4, 14]: 65 | Plant response rating, Surinam Grass [4, 15]: 75 | Bromegrass, Downy plant response rating (0 to 100 scale) [5, 12]: 30 | Plant response rating, Bromegrass, Downy [5, 13]: 5 | Plant response rating, Bromegrass, Downy [5, 14]: 35 | Plant response rating, Bromegrass, Downy [5, 15]: 50 | Ragweed plant response rating (0 to 100 scale) [6, 12]: 70 | Plant response rating, Ragweed [6, 13]: 45 | Plant response rating, Ragweed [6, 14]: 90 | Plant response rating, Ragweed [6, 15]: 95 | Cocklebur plant response rating (0 to 100 scale) [7, 12]: 55 | Plant response rating, Cocklebur [7, 13]: 15 | Plant response rating, Cocklebur [7, 14]: 98 | Plant response rating, Cocklebur [7, 15]: 100 | Wheat plant response rating (0 to 100 scale) [8, 12]: 30 | Plant response rating, Wheat [8, 13]: 15 | Plant response rating, Wheat [8, 14]: 40 | Plant response rating, Wheat [8, 15]: 70 | Cupgrass, Woolly plant response rating (0 to 100 scale) [9, 12]: 45 | Plant response rating, Cupgrass, Woolly [9, 13]: 20 | Plant response rating, Cupgrass, Woolly [9, 14]: 65 | Plant response rating, Cupgrass, Woolly [9, 15]: 75 | Kochia plant response rating (0 to 100 scale) (kochia (Kochia scoparia); [12]): 100 | Plant response rating, Kochia (kochia (Kochia scoparia); [13]): 35 | Plant response rating, Kochia (kochia (Kochia scoparia); [14]): 100 | Plant response rating, Kochia (kochia (Kochia scoparia); [15]): 100 | Blackgrass plant response rating (0 to 100 scale) [10, 12]: 35 | Plant response rating, Blackgrass [10, 13]: 10 | Plant response rating, Blackgrass [10, 14]: 60 | Plant response rating, Blackgrass [10, 15]: 65 | Crabgrass, Large plant response rating (0 to 100 scale) [11, 12]: 75 | Plant response rating, Crabgrass, Large [11, 13]: 60 | Plant response rating, Crabgrass, Large [11, 14]: 80 | Plant response rating, Crabgrass, Large [11, 15]: 90
